Data reported in the supplement of paper PMC10307832.

Experiments:
Assay in all cases: relative viability (nuclei count vs DMSO), 5 days (fraction); higher = more cells survive
NCI-H358 = test system: NCI-H358
In short: (§1)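 After 5 days of treatment, lung cancer cells in 1536-well plates were fixed and stained in a single step (final 0.05% Triton X-100, 1% formaldehyde, 1 ug/ml Hoechst) and their nuclei counted on 4× images. Treatment had been applied by pin tool the day after seeding as one drug alone or as a fixed anchor-drug dose with five library-drug doses (not always all listed) in √10 steps. Relative viability is the nuclei count of treated wells divided by that of vehicle wells, and values are medians of duplicate plates.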

LU99A = test system: LU99A
In short: as §1

HOP-62 = test system: HOP-62
In short: as §1

NCI-H647 = test system: NCI-H647
In short: as §1

NCI-H2085 = test system: NCI-H2085
In short: as §1

H3255 = test system: H3255
In short: as §1

NCI-H2126 = test system: NCI-H2126
In short: as §1

NCI-H1395 = test system: NCI-H1395
In short: as §1

PC-3 [JPC-3] = test system: PC-3 [JPC-3]
In short: as §1

NCI-H1975 = test system: NCI-H1975
In short: as §1

SW 1573 = test system: SW 1573
In short: as §1

BEN = test system: BEN
In short: as §1

SMILES: COc1cc(N2CCC(C(N)=O)CC2)ccc1Nc1nc(N)c(Cl)c(Nc2ccccc2S(=O)(=O)C(C)C)n1 [HG-5-88-01] + O=C(c1cc(Cc2n[nH]c(=O)c3ccccc23)ccc1F)N1CCN(C(=O)C2CC2)CC1 [Olaparib] (partner 8 µM)
- relative viability (NCI-H358; first compound 0.04 µM): 0.569
- relative viability (NCI-H358; first compound 0.1265 µM): 0.568
- relative viability (NCI-H358; first compound 0.4 µM): 0.545
- relative viability (NCI-H358; first compound 1.265 µM): 0.242
- relative viability (NCI-H358; first compound 4 µM): 0.466
- relative viability (LU99A; first compound 0.04 µM): 0.266
- relative viability (LU99A; first compound 0.1265 µM): 0.257
- relative viability (LU99A; first compound 0.4 µM): 0.208
- relative viability (LU99A; first compound 1.265 µM): 0.269
- relative viability (LU99A; first compound 4 µM): 0.315
- relative viability (HOP-62; first compound 0.04 µM): 0.426
- relative viability (HOP-62; first compound 0.1265 µM): 0.511
- relative viability (HOP-62; first compound 0.4 µM): 0.396
- relative viability (HOP-62; first compound 1.265 µM): 0.538
- relative viability (HOP-62; first compound 4 µM): 0.283
- relative viability (NCI-H647; first compound 0.04 µM): 0.552
- relative viability (NCI-H647; first compound 0.1265 µM): 0.553
- relative viability (NCI-H647; first compound 1.265 µM): 0.667
- relative viability (NCI-H647; first compound 4 µM): 0.738
- relative viability (NCI-H2085; first compound 0.04 µM): 0.853
- relative viability (NCI-H2085; first compound 0.1265 µM): 0.753
- relative viability (NCI-H2085; first compound 0.4 µM): 0.833
- relative viability (NCI-H2085; first compound 1.265 µM): 0.765
- relative viability (NCI-H2085; first compound 4 µM): 0.871
- relative viability (H3255; first compound 0.04 µM): 0.556
- relative viability (H3255; first compound 0.1265 µM): 0.593
- relative viability (H3255; first compound 0.4 µM): 0.555
- relative viability (H3255; first compound 4 µM): 0.531
- relative viability (NCI-H2126; first compound 0.04 µM): 0.972
- relative viability (NCI-H2126; first compound 0.1265 µM): 0.911
- relative viability (NCI-H2126; first compound 0.4 µM): 0.939
- relative viability (NCI-H2126; first compound 1.265 µM): 0.822
- relative viability (NCI-H2126; first compound 4 µM): 0.872
- relative viability (NCI-H1395; first compound 0.04 µM): 0.499
- relative viability (NCI-H1395; first compound 0.1265 µM): 0.467
- relative viability (NCI-H1395; first compound 0.4 µM): 0.48
- relative viability (NCI-H1395; first compound 1.265 µM): 0.472
- relative viability (NCI-H1395; first compound 4 µM): 0.487
- relative viability (PC-3 [JPC-3]; first compound 0.04 µM): 1.15
- relative viability (PC-3 [JPC-3]; first compound 0.1265 µM): 1.14
- relative viability (PC-3 [JPC-3]; first compound 0.4 µM): 1.04
- relative viability (PC-3 [JPC-3]; first compound 1.265 µM): 0.379
- relative viability (PC-3 [JPC-3]; first compound 4 µM): 0.506
- relative viability (NCI-H1975; first compound 0.04 µM): 0.834
- relative viability (NCI-H1975; first compound 0.1265 µM): 0.822
- relative viability (NCI-H1975; first compound 0.4 µM): 0.782
- relative viability (NCI-H1975; first compound 1.265 µM): 0.715
- relative viability (NCI-H1975; first compound 4 µM): 0.419
- relative viability (SW 1573; first compound 0.04 µM): 0.562
- relative viability (SW 1573; first compound 0.1265 µM): 0.554
- relative viability (SW 1573; first compound 0.4 µM): 0.438
- relative viability (SW 1573; first compound 1.265 µM): 0.368
- relative viability (SW 1573; first compound 4 µM): 0.375
- relative viability (BEN; first compound 0.04 µM): 1.2
- relative viability (BEN; first compound 0.1265 µM): 1.16
- relative viability (BEN; first compound 0.4 µM): 1.13
- relative viability (BEN; first compound 1.265 µM): 0.683
- relative viability (BEN; first compound 4 µM): 0.993
